According to patent US9139615B2, “High-affinity, dimeric inhibitors of PSD-95 as efficient neuroprotectants against ischemic brain damage and for treatment of pain” (University of Copenhagen, priority 2011, dated 2015):
Where no end group is shown, it is not given here.

Key:
[1] = Blood-brain barrier permeability of fluorescent analogues; type: in vivo, mice; details: mouse, in vivo, iv
Description: VI.ii. Blood-brain Barrier Permeability. […] After injection of the compounds, the mice are perfused with paraformaldehyde and the brains are carefully removed, post-fixed in paraformaldehyde, processed into coronal sections, and quantified for fluorescence (Example 8).
The fluorescent ligands were injected intravenously (3 nmol/g) and the location of the ligands was detected by fluorescence microscopy of coronal brain slices (n=8) mice, was evaluated 2 hours after injection. Two sections of the brain, prior to and two after the anterior commissure (n=5), were selected for BBB permeability analysis. The anterior commissure (Bregma: −0.3) was used as a fix point in the brain in order to analyse anatomically identical brain sections. The intensity of the 5-FAM fluorophore was measured semi-quantitatively using a fluorescence microscopy system (Olympus System Microscope model BX-51, Denmark) with a 10× objective (Olympus 10×/0.15 UPlanApo) connected to a high-resolution microscope digital camera (Olympus model DP70), which transferred images to an image-capturing software (Image Pro Plus software). All images were taken using the same microscope settings and with constant camera exposure time. Intensities were quantified using the ImageJ software.
5-FAM-labeled derivative of Tat-NR2B9c is designated MS23. After injection of the compounds, the mice are perfused with paraformaldehyde and the brains are carefully removed, post-fixed in paraformaldehyde, processed into coronal sections, and quantified for fluorescence.
C57BL/6 mice with 6 hour post-surgical survival time were euthanized by cervical dislocation. C57BL/6 mice with 48 hour post-surgical survival were anesthetized with an overdosed of pentobarbital (the pharmacy of the Faculty of Life Sciences, University of Copenhagen, Denmark) in order to collect blood and tissue samples. All brains were carefully removed, frozen in gaseous CO2 and cut into 6 series of 30 μm coronal cryostat sections and stored at −80° C. until further use. C57BL/6J mice used to investigate the blood-brain barrier (BBB) permeability of AB143, AB145, AB148, and MS23 were deeply anesthetized and perfused through the left ventricle, using 10 ml chilled Soerensens phosphate buffer (SB) ([…], 125 mM Na2HPO4, pH 7.4) followed by 20 mL SB containing 4% paraformaldehyde (PFA). The brains were carefully removed and post-fixed in 4% PFA for 1 hour followed by immersion in SB containing 20% sucrose over night. The brains were frozen on gaseous CO2 and processed into 16 μm coronal cryostat sections.

[2] = Human blood plasma stability assay; type: in vitro ADME; details: human, plasma; 0.25 mM, 37° C., in vitro; read-out: half-life (T1/2) in human blood plasma
Description: Ligands (dimeric PSD-95 inhibitors) for the PDZ domain of PSD-95 were dissolved in human blood plasma (270 μL; 3H Biomedical, Sweden, cat no 1300-1-P50) to a concentration of 0.25 mM (30 μL, of 2.5 mM) and incubated at 37° C. Aliquots (30 μL) were removed at various time intervals (e.g. 0, 5, 10, 20, 40, 80, 160, 320, 960, 1280, 2550, 4560 and 7240 min) and quenched with 60 μL, trichloroacetic acid (aq., 5%). The aliquots were vortexed, and incubated 15 min, at 4° C. prior to centrifugation at 18,000 g for 2 min. The supernatants were analyzed by analytical RP-HPLC (UV218) to quantify compound relative to time zero, and also evaluated qualitatively by ESI-LC/MS in order to identify the compound (m/z) in the sample. Procaine (positive control) and procainamide (negative control) were investigated at 50 μM to validate the procedure. Ligand recoveries following the precipitation procedure were between 85-95%.

For “YGRKKRRQRRRKLSSIESDV [Tat-NR2B9c, reference compound]”, the “entry into brain, fluorescence microscopy of coronal brain slices” value [1] was “enter the brain” and the half-life at 0.25 mM [2] was 1100 ± 300 min.
